The values that follow come from US20050203011A1, “Mitigating symptoms and behaviors of substance abuse by modulating GDNF or BDNF pathway activity” (The Regents of the University of California, priority 2003, published 2005).

Assay [1] deals with GDNF. Kind of assay: GDNF secretion into medium of SHSY5Y cells (ELISA). It is filed as cell-based, human. The following applies: 10 μM. From the text: GDNF secretion in the medium was detected using GDNF Emax Immunoassay System according to (Balkowiec and Katz, 2000). GDNF concentration was interpolated from the standard curves (linear range of 15.6-1000 pg/ml).
For orientation: ELISA stands for enzyme-linked immunosorbent assay.

Assay [2] relates to rats. Kind of assay: Ethanol reinstatement after extinction, systemic ibogaine. The following applies: 40 mg/kg i.p., 3 hours before test. It is filed as in vivo, rat. From the text:
The eight rats used in the operant self-administration study were also used to study ethanolseeking after a period of extinction. Following a period of stable responding for ethanol, rats underwent extinction in which no ethanol was delivered following active lever responses.

In assay [3] the test system is tyrosine hydroxylase (TH). Kind of assay: Tyrosine hydroxylase (TH) protein levels in SHSY5Y cells. It is filed as cell-based, human. The conditions noted are these: 100 mM ethanol 24 hours, GDNF 100 ng/ml or ibogaine 10 μM added for last 12 hours. The protocol:
Panel A: SHSY5Y cells were treated with different concentrations (0, 10, 25, and 100 mM) of ethanol for 24 hours. TH protein levels and control Actin levels were determined by Western blot analysis. Histogram depicts the mean ratio (TI/actin)±SD of 3 experiments. Panel B: Cells were treated with media (control), 100 ng/ml of GDNF for 12 h (lane 1), 100 mM ethanol for 24 hours (lane 2), or 100 mM ethanol for 24 hours to which 100 ng/ml GDNF was added for the last 12 hours (lane 3). The cells were lysed for Western blot analysis. Histogram depicts the mean ratio (TH/actin)±SD of 3 experiments. […] Histogram depicts the mean ratio (TH/actin)±SD of 3 experiments.

Assay [4] concerns rats. Kind of assay: Intra-VTA minipump infusion of anti-GDNF neutralizing antibodies, ethanol self-administration after ibogaine. Type of assay: in vivo, rat. The following applies: 3 hours after ibogaine 40 mg/kg i.p., control subjects (intra-VTA mouse IgG).
Method: An osmotic minipump (Alzet) was then connected to each of the two guide cannulae and was implanted subcutaneously for continuous infusion of either anti GDNF neutralizing antibodies (600 ng/12 N^ol/side/day) or mouse IgG (600 ng/12 μl/side/day).
Assay [5] has as its system GDNF. Kind of assay: GDNF expression in the midbrain after i.p. ibogaine (RT-PCR), mice. Type of assay: in vivo, mouse. The following applies: 40 mg/kg i.p., 1, 6 or 12 h post injection. The protocol:
Total RNA was isolated using Trizol reagent and reverse transcribed using Reverse Transcription System kit with the oligo (dT)15 primer at 42ûC for 30 minutes. GDNF, Actin or GPDH expressions were analyzed by RT-PCR. The GDNF primers were based on the coding frame of the human GDNF gene: upstream, 5′-TGCCAGAGGATTATCCTGATCAGTTCG ATG3′ (SEQ ID NO: 1); and downstream, 5′-TTGTCGTACGTTGTCTCAGCTGCATCGCAA-3′ (SEQ ID NO:2). The Actin primers were based on the human Actin gene: upstream, 5′-TCATGAAGTGTGACGTTGACATC-3′ (SEQ ID NO:3); and downstream, 5′-AGAAGCATTTGCGGTGGACGATG-3′ (SEQ ID NO:4). The GPDH primers were based on the rat GPDH gene: upstream, 5′-TGAAGGTCGGTGTCAACGGATTTGGC-3′ (SEQ ID NO:5); and downstream, 5′-CATGTAGGCCATGAGGTCCACCAC-3′ (SEQ ID NO:6). PCR conditions were optimized to specifically ensure that the amplification reactions are within the linear range by testing a range of 25-40 PCR cycles. The optimal numbers of cycles used were: 30 cycles for controls GPDH and actin and 35 cycles for GDNF.
Male C57B16 mice or Long Evans rats were habituated with 3 saline injections over 3 days followed by i.p. administration of 40 mg/kg ibogaine-HCl. The animals were sacrificed 1, 6 or 12 hours post injection, and brain regions were excised and stored at −80° C. until use for analysis of GDNF expression by RT-PCR.

A further assay concerns Male Long Evans rats. Kind of assay: Ethanol and sucrose self-administration in the two-bottle preference test. It is filed as in vivo, rat. The following applies: ibogaine i.p. From the text: Male Long Evans rats were allowed continuous access to two bottles, one containing 10% ethanol (10 E) in tap water and the other containing tap water. […] Each subject received each dose, with one injection per week. Next, subjects were exposed to 2 bottles, one containing 10% sucrose (10 S) in tap water and the other containing tap water.

The next assay deals with DBA mice. Kind of assay: Conditioned place preference test (CPP). It is filed as in vivo, mouse. The conditions noted are these: ibogaine 40 mg/kg i.p. during CPP acquisition, before expression, or both. The protocol:
The CPP apparatus (Med Associates) consisted of two visually distinctive conditioning compartments connected by a smaller center compartment. The CPP procedure consisted of three phases: preconditioning (Day 1), conditioning (Days 2-9), and post-conditioning (Day 10). On Day 1, mice were placed into the center compartment and allowed free access to both conditioning compartments for 30 minutes. […] Mice were given access to one conditioning chamber for 5 minutes immediately after injection or 3 h after injection. […] Control subjects received saline in both conditioning chambers. […] Ethanol treatment was followed by placement within one conditioning chamber, alternated with saline treatment and placement into the other conditioning chamber, as described above. On Day 10, animals were tested for CPP by allowing free access to both conditioning compartments for 30 minutes. Photocell counts provided a measure of locomotor activity as well as time spent in each compartment

The subject of assay [6] is rats. Kind of assay: Ethanol operant self-administration after systemic ibogaine. It is filed as in vivo, rat. The following applies: 40 mg/kg i.p., 3 hours prior to session. From the text:
Rats were water restricted, and then trained to lever press for a 10 S/10 E reinforcer solution in 3 overnight sessions. On the 4th day, rats were allowed ad libitum access to water in the home cage, and were transferred to 1-hour daily sessions wherein responses were reinforced with 5 S/10 E on a fixed-ratio 3 (FR3) schedule. Sucrose was phased out of the reinforcer solution over the next 7 days until the solution consisted of 10 E only. Experimental manipulations began after 30 sessions when stable 10 E intake of >0.4 g/kg ethanol was attained.

With 12-methoxyibogamine [ibogaine], the “GDNF levels in the media (secretion)” value in the assay with GDNF [1] was “accumulated in the media in a time-dependent manner”. In addition, the “reinstatement of lever pressing for ethanol” value in the assay with rats [2] was “reduced”. Further, in assay [3], the “ethanol-induced increase in TH immunoreactivity” value was “inhibited”. Besides, in the assay with rats [4], the “decrease in responding for ethanol” value stood at 79.1%. The “expression of GDNF in the midbrain” value with GDNF [5] is listed as “increase”. Further, the ethanol intake result in the assay with Male Long Evans rats (continuous access to ethanol in home cage, measured 24 hours after injection) is reported as “reduced”. The preference for ethanol entry with Male Long Evans rats (continuous access, 24 hours after injection) is “reduced”. Moreover, the “rewarding properties of ethanol (ethanol-induced CPP)” value with DBA mice is listed as “not altered”. Also, the “responding at the ethanol-paired lever” value in the assay with rats [6] is listed as “decreased”.
